Read-outs that look alike come from different tables or passages of the source.
Assays:
T. congolense IL3000 = assay: In vitro trypanocidal activity (CellTiter-Glo, 3 days); assay type: cell-based; details: bloodstream forms, 33 °C, mean ± SD of triplicate, read-out: Trypanocidal Activity IC50 ± SD, Tc IL3000
Method: (§1) The bloodstream forms of T. b. brucei GUTat3.1, T. b. rhodesiense IL1501, T. b. rhodesiense Chirundu, T. b. gambiense IL1922, and T. evansi Tansui strains were propagated in culture at 37 °C, whereas the T. congolense IL3000 strain was propagated at 33 °C in Hirumi’s modified Iscove’s medium-9, supplemented with 20% heat-inactivated fetal bovine serum. The bloodstream form cultures were maintained by replacing the entire culture supernatant with fresh medium, every other day.
(§2) The trypanocidal activity and cytotoxicity of nitrofurantoin analogs were evaluated according to previous reports, with some modifications. In brief, bloodstream forms adjusted at 2.5 × 10^3 cells/mL (T. b. brucei GUTat3.1, T. b. gambiense IL1922, and T. b. rhodesiense IL1501), 1 × 10^4 cells/mL (T. evansi Tansui and T. b. rhodesiense Chirundu), and 1 × 10^5 cells/mL (T. congolense IL3000), were cultivated in Nunc® MicroWell 96-well optical bottom plates (Thermo Fisher Scientific, Waltham, MA, USA) and exposed to various analogs at seven different concentrations for 3 days, in an incubator at 37 °C (33 °C for T. congolense IL3000). […] Twenty-five microliters of the Cell-TiterGlo® (Promega, Madison, WI, USA) reagent was added into each well, and bioluminescence was measured using a GloMax®-Multi+Detection System plate reader (Promega).
(§3) The half maximum inhibitory concentration (IC50) of each analog in trypanosomes and the Madin–Darby bovine kidney cells was calculated using the GraphPad Prism version 8 software (GraphPad, Inc., San Diego, CA, USA).

T. b. rhodesiense IL1501 = assay: as above; assay type: cell-based; details: Trypanosoma brucei, 72 h, bloodstream forms, 37 °C, mean ± SD of triplicate, read-out: Trypanocidal Activity IC50 ± SD, Tbr IL1501
Method: as §1, §2, §3

T. evansi Tansui = assay: as above; assay type: cell-based; details: 72 h, bloodstream forms, 37 °C, mean ± SD of triplicate, read-out: Trypanocidal Activity IC50 ± SD, Tev Tansui
Method: as §1, §2, §3

T. b. brucei GUTat3.1 = assay: as above; assay type: cell-based; details: Trypanosoma brucei, 72 h, bloodstream forms, 37 °C, mean ± SD of triplicate, read-out: Trypanocidal Activity IC50 ± SD, Tbb GUTat3.1
Method: as §1, §2, §3

T. b. gambiense IL1922 = assay: as above; assay type: cell-based; details: Trypanosoma brucei, 72 h, bloodstream forms, 37 °C, mean ± SD of triplicate, read-out: Trypanocidal Activity IC50 ± SD, Tbg IL1922
Method: as §1, §2, §3

[1] = Cytotoxicity (Cell Counting Kit-8, 3 days); assay type: cell-based, bovine; details: bovine, 37 °C, mean ± SD of triplicate
Method: Additionally, Madin–Darby bovine kidney cells were cultivated (density, 1 × 10^4 cells/mL) in a 96-well cell culture plate (Thermo Fisher Scientific) with the analogs, at seven different concentrations for 3 days at 37 °C. Next, 10 µl of the Cell Counting Kit-8 solution (Dojindo, Kumamoto, Japan) was added into each well […] 4 h of incubation. Absorbance was measured at 450 nm using a GloMax®-Multi+Detection System plate reader.
as §3

[2] = test system: T. b. rhodesiense Chirundu; assay: In vitro trypanocidal activity (CellTiter-Glo, 3 days); assay type: cell-based; details: Trypanosoma brucei, 72 h, bloodstream forms, 37 °C, mean ± SD of triplicate, read-out: Trypanocidal Activity IC50 ± SD, Tbr Chirundu
Method: as §1, §2, §3

[3] = Madin–Darby bovine kidney (MDBK) cells

Row | Structure (SMILES) | IC50 (T. congolense IL3000; Trypanosoma congolense, 72 h) [µM] | IC50 (T. congolense IL3000) [µM] | IC50 (T. b. rhodesiense IL1501) [µM] | IC50 (T. evansi Tansui) [µM] | IC50 (T. b. brucei GUTat3.1) [µM] | IC50 (T. b. gambiense IL1922) [µM] | IC50 at 3 days [1, 3] [µM] | IC50 [2] [µM] | IC50 at 3 days ([1]; MDBK cells) [µM]
1 | CN1C(=O)CN(/N=C/c2ccc([N+](=O)[O-])o2)C1=O [Analog 1, (E)-3-Methyl-1-([(5-nitrofuran-2-yl)methylene]amino)imidazolidine-2,4-dione] | 0.19 to 0.73 | 0.19 ± 0.076 | 7.02 ± 0.094 | 1.61 ± 0.098 | 3.61 ± 0.4 | 3.6 ± 0.26 | 65.2 ± 12.8 |  | 
2 | CCN1C(=O)CN(/N=C/c2ccc([N+](=O)[O-])o2)C1=O [Analog 2, (E)-3-Ethyl-1-([(5-nitrofuran-2-yl)methylene]amino)imidazolidine-2,4-dione] |  |  | 11.4 ± 5.24 | 5.39 ± 0.53 | 10.8 ± 4.84 | 11.3 ± 4.8 | 44.8 ± 1.69 |  | 
3 | CCCN1C(=O)CN(/N=C/c2ccc([N+](=O)[O-])o2)C1=O [Analog 3, (E)-1-([(5-Nitrofuran-2-yl)methylene]amino)-3-propylimidazolidine-2,4-dione] | 0.33 ± 0.18 |  | 14 ± 1.42 | 6.53 ± 0.61 | 14.1 ± 0.34 | 14.7 ± 1.32 | 39.3 ± 1.09 | 0.81 ± 0.24 | 
4 | CCCCN1C(=O)CN(/N=C/c2ccc([N+](=O)[O-])o2)C1=O [Analog 4, (E)-3-Butyl-1-([(5-nitrofuran-2-yl)methylene]amino)imidazolidine-2,4-dione] | 0.31 ± 0.2 |  | 32.7 ± 0.82 | 7.89 ± 0.53 | 33.3 ± 24.3 | 17.2 ± 2.23 | 35.8 ± 3.49 | 1.38 ± 0.34 | 
5 | CCCCCN1C(=O)CN(/N=C/c2ccc([N+](=O)[O-])o2)C1=O [Analog 5, (E)-1-([(5-Nitrofuran-2-yl)methylene]amino)-3-pentylimidazolidine-2,4-dione] | 0.35 ± 0.15 |  | 5.69 ± 1.66 | 5.44 ± 0.17 | 4.24 ± 1.99 | 3.42 ± 1.47 | 39.1 ± 5.86 |  | 
6 | CCCCCCN1C(=O)CN(/N=C/c2ccc([N+](=O)[O-])o2)C1=O [Analog 6, (E)-3-Hexyl-1-([(5-nitrofuran-2-yl)methylene]amino)imidazolidine-2,4-dione] | 0.08 ± 0.047 |  | 2.61 ± 0.12 | 3.76 ± 0.47 | 5.76 ± 4.01 | 2.59 ± 0.28 | 25.2 ± 3.52 | 0.17 ± 0.11 | 
7 | CCCCCCCN1C(=O)CN(/N=C/c2ccc([N+](=O)[O-])o2)C1=O [Analog 7, (E)-3-Heptyl-1-([(5-nitrofuran-2-yl)methylene]amino)imidazolidine-2,4-dione] | 0.04 ± 0.011 |  | 1.45 ± 0.86 | 1.02 ± 0.1 | 2.06 ± 0.75 | 1.99 ± 0.75 | 92.3 ± 6.52 | 0.056 ± 0.026 | 
8 | CCCCCCCCCCN1C(=O)CN(/N=C/c2ccc([N+](=O)[O-])o2)C1=O [Analog 10, (E)-3-Decyl-1-([(5-nitrofuran-2-yl)methylene]amino)imidazolidine-2,4-dione] | 0.011 ± 0.0044 |  | 0.61 ± 0.06 | 0.28 ± 0.025 | 0.65 ± 0.56 | 0.62 ± 0.7 | 110 ± 14.4 | 0.017 ± 0.0044 | 
9 | O=C1CN(/N=C/c2ccc([N+](=O)[O-])o2)C(=O)N1CCCc1ccccc1 [Analog 13, (E)-1-([(5-Nitrofuran-2-yl)methylene]amino)-3-(3-phenylpropyl)imidazolidine-2,4-dione] | 0.14 ± 0.03 |  | 5.9 ± 3.75 | 3.11 ± 0.37 | 7.29 ± 3.16 | 4.83 ± 3.22 | > 281 | 0.14 ± 0.067 | 
10 | O=C1CN(/N=C/c2ccc([N+](=O)[O-])o2)C(=O)N1Cc1ccccc1 [Analog 14, (E)-3-Benzyl-1-([(5-nitrofuran-2-yl)methylene]amino)imidazolidine-2,4-dione] | 0.18 ± 0.017 |  | 2.83 ± 0.61 | 1.26 ± 0.1 | 2.88 ± 0.26 | 2.34 ± 0.64 | > 305 | 0.27 ± 0.12 | 
11 | Cc1ccc(CN2C(=O)CN(/N=C/c3ccc([N+](=O)[O-])o3)C2=O)cc1 [Analog 15, (E)-3-(p-Methylbenzyl)-1-([(5-nitrofuran-2-yl)methylene]amino)imidazolidine-2,4-dione] | 0.13 ± 0.044 |  | 6.1 ± 0.047 | 4.23 ± 0.4 | 8.24 ± 3.11 | 2.89 ± 0.51 | 34.3 ± 11.5 | 0.15 ± 0.068 | 
12 | O=C1CN(/N=C/c2ccc([N+](=O)[O-])o2)C(=O)N1Cc1ccc(C(F)(F)F)cc1 [Analog 16, (E)-1-([(5-Nitrofuran-2-yl)methylene]amino)-3-(p-(trifluoromethyl)benzyl) imidazolidine-2,4-dione] | 0.02 |  | 0.96 ± 0.0087 | 0.44 ± 0.046 | 0.52 ± 0.081 | 0.61 ± 0.26 | 56.6 ± 40.8 | 0.02 ± 0.012 | 
13 | O=C1CN(/N=C/c2ccc([N+](=O)[O-])o2)C(=O)N1Cc1ccc([N+](=O)[O-])cc1 [Analog 17, (E)-3-(p-Nitrobenzyl)-1-([(5-nitrofuran-2-yl)methylene]amino)imidazolidine-2,4-dione] | 0.04 ± 0.017 |  | 0.5 ± 0.012 | 0.61 ± 0.05 | 1.07 ± 0.74 | 1.05 ± 0.7 |  | 0.04 ± 0.094 | 20.1 ± 1.02
14 | NCCCC(N)(C(=O)O)C(F)F (stereo not shown) [Eflornithine, reference compound] | 16.1 ± 2.93 |  | 46 ± 17.1 | 57.2 ± 17.6 | 38.6 ± 9.88 | 36.7 ± 12.9 |  | 35.6 ± 10.2 | 
15 | CC1CS(=O)(=O)CCN1/N=C/c1ccc([N+](=O)[O-])o1 (stereo not shown) [Nifurtimox, reference compound] | 1.06 ± 0.22 |  | 4.35 ± 1.59 | 2.62 ± 1.4 | 4.66 | 4.58 ± 2.38 |  | 1.46 ± 0.35 | 
16 | N=C(N)c1ccc(OCCCCCOc2ccc(C(=N)N)cc2)cc1 [Pentamidine, reference compound] | 0.33 ± 0.054 |  | 0.029 ± 0.0062 | 0.00097 ± 0.00019 | 0.041 ± 0.0023 | 0.014 ± 0.0031 |  | 0.05 ± 0.012 | 
17 | Cc1ccc(C(=O)Nc2ccc(S(=O)(=O)O)c3cc(S(=O)(=O)O)cc(S(=O)(=O)O)c23)cc1NC(=O)c1cccc(NC(=O)Nc2cccc(C(=O)Nc3cc(C(=O)Nc4ccc(S(=O)(=O)O)c5cc(S(=O)(=O)O)cc(S(=O)(=O)O)c45)ccc3C)c2)c1 [Suramin, reference compound] | 7.17 ± 0.87 |  | 0.076 ± 0.011 | 0.38 ± 0.058 | 0.066 ± 0.0052 | 0.064 ± 0.0018 |  | 0.066 ± 0.071 | 

Reference: PMC8199755, “In Vitro and In Vivo Trypanocidal Efficacy of Synthesized Nitrofurantoin Analogs” (Molecules, 2021)
